Results on 11 molecules are retold here after US20250332300A1 (priority 2024, published 2025).

Read-outs that look alike come from different tables or passages of the source.

The format of data set [1] is physicochemical. The procedure:
Radio-HPLC Analytical Method: Eluent A: Water+0.1% TFA; Eluent B: ACN+0.1% TFA; Column temperature: 25° C.; Flow: 1.0 mL/min; Column: […] Gradient: hold 10% B for 1 min, from 10 to 80% B in 8 min, hold 80% B for 2 min, from 80 to 15% B in 1 min. Radio-iTLC Analytical Method: […] For Lu-177 and Ga-68, the radiotracer-spotted iTLC plates were directly read in a radio-TLC scanner after developing in a sodium citrate 0.1M (pH 4.6) mobile phase. Rf([^177Lu/^68Ga]Lu/Ga-labeled compounds)=0.0-0.5 and Rf (unchelated ^177Lu^3+/^68Ga^3+)=0.5-1.0. The initial radiochemical purity of the [^177Lu]Lu-labeled compounds was analyzed by […] and […] and the stability in solution at 24° C. was evaluated after the end of synthesis by radio-HPLC.

The mark [2] stands for this setting: amide bond, 30-membered ring, PyAOP/DIEA, DMF, resin, […], 50.0 °C, with chain assembly.

“2-((1E,3E)-5-((E)-1-(6-((3-(((3S,6S,9S,12S,15S,18S,21S,24S,27S)-9-((1H-indol-3-yl)methyl)-15-(4-acetamidobutyl)-3-(((S)-1-(((S)-1-amino-6-(4-(carboxymethyl)piperazine-1-carboxamido)-1-oxohexan-2-yl)amino)-3-(4-fluorophenyl)-1-oxopropan-2-yl)(methyl)carbamoyl)-12-((5-hydroxy-1H-indol-3-yl)methyl)-24-(4-hydroxybenzyl)-6-((S)-1-hydroxyethyl)-21-(hydroxymethyl)-4,16,19-trimethyl-5,8,11,14,17,20,23,26,30-nonaoxo-18-phenethyl-1,4,7,10,13,16,19,22,25-nonaazacyclotriacontan-27-yl)amino)-3-oxopropyl)amino)-6-oxohexyl)-3,3-dimethyl-5-sulfoindolin-2-ylidene)penta-1,3-dien-1-yl)-1-ethyl-3,3-dimethyl-3H-indol-1-ium-5-sulfonate TFA salt”: under setting [2], the ring closure, yield after HPLC came out at 2%. On to “2-((1E,3E)-5-((E)-1-(6-(((S)-5-((S)-2-((3S,6S,9S,12S,15S,18S,21S,24S,27S)-9-((1H-indol-3-yl)methyl)-27-acetamido-15-(4-acetamidobutyl)-12-((5-hydroxy-1H-indol-3-yl)methyl)-24-(4-hydroxybenzyl)-6-((S)-1-hydroxyethyl)-21-(hydroxymethyl)-N,4,16,19-tetramethyl-5,8,11,14,17,20,23,26,30-nonaoxo-18-phenethyl-1,4,7,10,13,16,19,22,25-nonaazacyclotriacontane-3-carboxamido)-3-(4-fluorophenyl)propanamido)-6-amino-6-oxohexyl)amino)-6-oxohexyl)-3,3-dimethyl-5-sulfoindolin-2-ylidene)penta-1,3-dien-1-yl)-1-ethyl-3,3-dimethyl-3H-indol-1-ium-5-sulfonate”, for which the ring closure, yield after HPLC under setting [2] was 1.7%.

In turn, “4-(((3S,6S,9S,12S,15S,18S,21S,24S,27S)-9-((1H-indol-3-yl)methyl)-15-(4-acetamidobutyl)-6-cyclopropyl-3-(((S)-1-(((S)-1,6-diamino-1-oxohexan-2-yl)amino)-3-(4-fluorophenyl)-1-oxopropan-2-yl)(methyl)carbamoyl)-12-((5-hydroxy-1H-indol-3-yl)methyl)-24-(4-hydroxybenzyl)-21-(hydroxymethyl)-4,16,19-trimethyl-5,8,11,14,17,20,23,26,31-nonaoxo-18-phenethyl-1,4,7,10,13,16,19,22,25-nonaazacyclohentriacontan-27-yl)amino)-4-oxobutanoic acid TFA salt” came in with a ring closure, yield after HPLC (amide bond, 31-membered ring, PyAOP/Et3N, then TFA, DCM, 0.79 mM, 2 steps) of 61%. For the molecule `CC(=O)NCCCC[C@H]1C(=O)N[C@@H](Cc2c[nH]c3ccc(O)cc23)C(=O)N[C@@H](Cc2c[nH]c3ccccc23)C(=O)N[C@@H](C2CC2)C(=O)N(C)[C@H](C(=O)N(C)[C@@H](Cc2ccc(F)cc2)C(=O)N[C@@H](CCCCNC(=O)CN2CCN(CC(=O)O)CCN(CC(=O)O)CCN(CC(=O)O)CC2)C(N)=O)CNC(=O)CCC[C@H](NC(C)=O)C(=O)N[C@H](Cc2ccc(O)cc2)C(=O)N[C@H](CO)C(=O)N(C)[C@@H](CCc2ccccc2)C(=O)N1C` [Example H4, Example B4 labelled with ^177Lu, metal not drawn], in data set [1], the “Radiochemical purity by radio-HPLC, stability in solution, 5 h (%)” value is listed as 98.6%; the “Radiochemical purity by radio-HPLC, stability in solution, 24 h (%)” value came to 98.2%; the “Radiochemical purity by radio-HPLC, stability in solution, 48 h (%)” value is 97.6%; the “Radiochemical purity by radio-HPLC, stability in solution, 72 h (%)” value worked out at 97.8%. In the case of “(3R,6S,9S,12S,15S,18S,21S,24S,27S)-9-((1H-indol-3-yl)methyl)-27-acetamido-N—((S)-1-amino-3-(4-fluorophenyl)-1-oxopropan-2-yl)-6-cyclopropyl-12-((5-hydroxy-1H-indol-3-yl)methyl)-24-(4-hydroxybenzyl)-15,21-bis(hydroxymethyl)-N,4,16,19-tetramethyl-5,8,11,14,17,20,23,26,30-nonaoxo-18-phenethyl-1-thia-4,7,10,13,16,19,22,25,29-nonaazacyclohentriacontane-3-carboxamide”, the ring closure, yield after HPLC (thioether bond, 31-membered ring, DIEA, ACN/water, […], with chain assembly) amounted to 6%.

Under “thioether bond, 31-membered ring, DIEA, then pyrrolidine, ACN/water, […], with chain assembly”, “(3R,6S,9S,12S,15S,18S,21S,24S,27S)-9-((1H-indol-3-yl)methyl)-27-amino-N—((S)-1-amino-3-(4-fluorophenyl)-1-oxopropan-2-yl)-6-cyclopropyl-12-((5-hydroxy-1H-indol-3-yl)methyl)-24-(4-hydroxybenzyl)-15,21-bis(hydroxymethyl)-N,4,16,19-tetramethyl-5,8,11,14,17,20,23,26,30-nonaoxo-18-phenethyl-1-thia-4,7,10,13,16,19,22,25,29-nonaazacyclohentriacontane-3-carboxamide TFA salt” returned a ring closure, yield after HPLC of 1%. Under “disulfide bond, 29-membered ring, DMSO (air), DMSO/water 1/4, 1.88 mM, […]”, “(4R,7S,10S,13S,16S,19S,22S,25S,28R)-10-((1H-indol-3-yl)methyl)-28-amino-N—((S)-1-amino-3-(4-fluorophenyl)-1-oxopropan-2-yl)-7-cyclopropyl-13-((5-hydroxy-1H-indol-3-yl)methyl)-25-(4-hydroxybenzyl)-16,22-bis(hydroxymethyl)-N,5,17,20-tetramethyl-6,9,12,15,18,21,24,27-octaoxo-19-phenethyl-1,2-dithia-5,8,11,14,17,20,23,26-octaazacyclononacosane-4-carboxamide TFA salt” showed a ring closure, yield after HPLC of 26%.

Molecule “((S)-2-((3S,6S,9S,12S,15S,18S,21S,24S,27S)-9-((1H-indol-3-yl)methyl)-27-acetamido-15-(4-acetamidobutyl)-6-cyclopropyl-12-((5-hydroxy-1H-indol-3-yl)methyl)-24-(4-hydroxybenzyl)-21-(hydroxymethyl)-N,4,16,19-tetramethyl-5,8,11,14,17,20,23,26,31-nonaoxo-18-phenethyl-1,4,7,10,13,16,19,22,25-nonaazacyclohentriacontane-3-carboxamido)-3-(4-fluorophenyl) propanoyl)-L-lysine TFA Salt” returned a ring closure, yield after HPLC (amide bond, 31-membered ring, HATU/DIEA, DMF, resin, 10.0 mM, with chain assembly) of 2.4%.

“Ac-hGlu-Tyr-Ser-MehPhe-MeLys(COCH2OH)-Trp(5-OH)-Trp-Gly(cPr)-MeDap-MePhe(4-F)-Lys(Alloc)-NH2?” displayed a ring closure, yield after HPLC (the molecule shown is the open-chain precursor, amide bond, 31-membered ring, PyAOP/DIEA, then Pd(PPh3)4/PhSiH3, DMF, 5.0 mM, with chain assembly) of 10.3%. For the setting “the molecule shown is the open-chain precursor, amide bond, 31-membered ring, HATU/2,6-lutidine, DMF/DCM 1:10, 0.76 mM”, “Fmoc-hGlu-Tyr-Ser-MehPhe-MeLys(Ac)-Trp(5-OH)-Trp-Gly(cPr)-MeDap-MePhe(4-F)-Lys(N3)-NH2?” gave a ring closure, yield after HPLC of 64%. Turning to “HOOC(CH2)4CO-Tyr-Ser-MehPhe-MeLys(Ac)-Trp(5-OH)-Trp-Gly(cPr)-MeDap-MePhe(4-F)-Lys(Boc)-NH2?”, where the note is “the molecule shown is the open-chain precursor, amide bond, 31-membered ring, PyAOP/Et3N, DCM, 0.52 mM”, the ring closure, yield after HPLC stood at 51%.
